Test results reported in patent US8466089B2, “Pyrazole compounds, process for their production and herbicides containing them” (Ishihara Sangyo Kaisha, Ltd., priority 2008, dated 2013).

Experiments:
Assay in all cases: Test Example 1, foliar treatment in upland pots
Type in all cases: in vivo
[1] = system: barnyardgrass (Echinochloa crus-galli L.); details: 20th to 22nd day after application, visual, read-out: Growth inhibition rate (%) Barnyardgrass
Description: (§1) Upland field soil was put into a 1/170,000 hectare pot, and seeds of various plants were sown. When the respective plants reached predetermined leaf stage ((1) barnyardgrass (Echinochloa crus-galli L.): 1.2 to 3.0 leaf stage, (2) crabgrass (Digitaria sanguinalis L.): 1.0 to 3.0 leaf stage, (3) green foxtail (Setaria viridis L.): 1.5 to 3.0 leaf stage, (4) redroot pigweed (Amaranthus retroflexus L.): cotyledon stage to 1.5 leaf stage, (5) prickly sida (Sida spinosa L.): cotyledon stage to 2.0 leaf stage, (6) velvetleaf (Abutilon theophrasti MEDIC.): cotyledon stage to 1.3 leaf stage, (7) rice (Oryza sativa L.): 1.2 to 2.5 leaf stage, (8) corn (Zea mays L.): 2.0 to 3.3 leaf stage, (9) soybean (Glycine max Merr.): primary leaf stage to 0.3 leaf stage) and wheat (Triticum spp.): 2.0 to 3.0 leaf stage, wettable powders or emulsifiable concentrates of the compounds of the present invention prepared in accordance with a conventional preparation method, were weighed so that the active ingredients became the prescribed amounts, and diluted with water in an amount corresponding to 500 liter per 1 hectare (containing 0.1 vol % of an agricultural spreader (“KUSARINOH”, manufactured by NIHON NOHYAKU CO., LTD.)). The spray solutions thus prepared were applied for foliar treatment by a small sprayer.
(§2) On the 20th to 22nd day after application, the state of growth of the respective plants was visually observed, and the herbicidal effect was evaluated by a growth inhibition rate (%) of 0 (equivalent to the non-treated area) to 100% (complete kill).

corn (Zea mays L.) = details: 20th to 22nd day after application, visual, read-out: Growth inhibition rate (%) Corn
Description: as §1, §2

[2] = system: crabgrass (Digitaria sanguinalis L.); details: 20th to 22nd day after application, visual, read-out: Growth inhibition rate (%) Crabgrass
Description: as §1, §2

[3] = system: green foxtail (Setaria viridis L.); details: 20th to 22nd day after application, visual, read-out: Growth inhibition rate (%) Green foxtail
Description: as §1, §2

[4] = system: prickly sida (Sida spinosa L.); details: 20th to 22nd day after application, visual, read-out: Growth inhibition rate (%) Prickly sida
Description: as §1, §2

[5] = system: redroot pigweed (Amaranthus retroflexus L.); details: 20th to 22nd day after application, visual, read-out: Growth inhibition rate (%) Redroot pigweed
Description: as §1, §2

rice (Oryza sativa L.) = details: 20th to 22nd day after application, visual, read-out: Growth inhibition rate (%) Rice
Description: as §1, §2

[6] = system: soybean (Glycine max Merr.); details: 20th to 22nd day after application, visual, read-out: Growth inhibition rate (%) Soybean
Description: as §1, §2

[7] = system: velvetleaf (Abutilon theophrasti MEDIC.); details: 20th to 22nd day after application, visual, read-out: Growth inhibition rate (%) Velvetleaf
Description: as §1, §2

wheat (Triticum spp.) = details: 20th to 22nd day after application, visual, read-out: Growth inhibition rate (%) Wheat
Description: as §1, §2

Structure (SMILES): COCCOc1c(S(C)(=O)=O)ccc(C(=O)c2cnn(C(C)C)c2O)c1C [Compound No. 8-1, (5-Hydroxy-1-isopropyl-1H-pyrazol-4-yl)(3-(2-methoxyethoxy)-2-methyl-4-(methylsulfonyl)phenyl)ketone]
- inhibition at 7 g/ha [1]: 60%
- inhibition at 7 g/ha (corn (Zea mays L.)): 0%
- inhibition at 7 g/ha [2]: 95%
- inhibition at 7 g/ha [3]: 90%
- inhibition at 7 g/ha [4]: 30%
- inhibition at 7 g/ha [5]: 90%
- inhibition at 7 g/ha (rice (Oryza sativa L.)): 10%
- inhibition at 7 g/ha [6]: 40%
- inhibition at 7 g/ha [7]: 80%
- inhibition at 7 g/ha (wheat (Triticum spp.)): 0%

Structure (SMILES): CCc1nn(C)c(O)c1C(=O)c1ccc(S(C)(=O)=O)c(OCCOC)c1C [Compound No. 5-3, (5-Hydroxy-1-methyl-3-ethyl-1H-pyrazol-4-yl)(3-(2-methoxyethoxy)-2-methyl-4-(methylsulfonyl)phenyl)ketone]
- inhibition at 7 g/ha [1]: 90%
- inhibition at 7 g/ha (corn (Zea mays L.)): 0%
- inhibition at 7 g/ha [2]: 90%
- inhibition at 7 g/ha [3]: 90%
- inhibition at 7 g/ha [4]: 30%
- inhibition at 7 g/ha [5]: 95%
- inhibition at 7 g/ha (rice (Oryza sativa L.)): 50%
- inhibition at 7 g/ha [6]: 0%
- inhibition at 7 g/ha [7]: 80%

Structure (SMILES): COCCOc1c(S(C)(=O)=O)ccc(C(=O)c2c(C)nn(C)c2O)c1C [Compound No. 5-2, (5-Hydroxy-1,3-dimethyl-1H-pyrazol-4-yl)(3-(2-methoxyethoxy)-2-methyl-4-(methylsulfonyl)phenyl)ketone]
- inhibition at 7 g/ha [1]: 90%
- inhibition at 7 g/ha (corn (Zea mays L.)): 0%
- inhibition at 7 g/ha [2]: 90%
- inhibition at 7 g/ha [3]: 100%
- inhibition at 7 g/ha [4]: 40%
- inhibition at 7 g/ha [5]: 90%
- inhibition at 7 g/ha (rice (Oryza sativa L.)): 50%
- inhibition at 7 g/ha [6]: 70%
- inhibition at 7 g/ha [7]: 70%

Structure (SMILES): COCCOc1c(S(C)(=O)=O)ccc(C(=O)c2c(C)nn(C)c2OC(C)OC(=O)OC)c1C (stereo not shown) [Compound No. 1-6, 1-(4-(3-(2-Methoxyethoxy)-2-methyl-4-(methylsulfonyl)benzoyl)-1,3-dimethyl-1H-pyrazol-5-yloxy)ethyl methyl carbonate]
- inhibition at 7 g/ha [1]: 90%
- inhibition at 7 g/ha (corn (Zea mays L.)): 0%
- inhibition at 7 g/ha [2]: 90%
- inhibition at 7 g/ha [3]: 95%
- inhibition at 7 g/ha [4]: 70%
- inhibition at 7 g/ha [5]: 90%
- inhibition at 7 g/ha (rice (Oryza sativa L.)): 70%
- inhibition at 7 g/ha [6]: 80%
- inhibition at 7 g/ha [7]: 98%
- inhibition at 7 g/ha (wheat (Triticum spp.)): 0%

Structure (SMILES): CCCn1ncc(C(=O)c2ccc(S(C)(=O)=O)c(OCCOC)c2C)c1OC(C)OC(=O)OCC (stereo not shown) [Compound No. 3-1, Ethyl 1-(1-n-propyl-4-(3-(2-methoxyethoxy)-2-methyl-4-(methylsulfonyl)benzoyl)-1H-pyrazol-5-yloxy)ethyl carbonate]
- inhibition at 7 g/ha [1]: 70%
- inhibition at 7 g/ha (corn (Zea mays L.)): 0%
- inhibition at 7 g/ha [2]: 70%
- inhibition at 7 g/ha [3]: 30%
- inhibition at 7 g/ha [4]: 0%
- inhibition at 7 g/ha [5]: 80%
- inhibition at 7 g/ha (rice (Oryza sativa L.)): 0%
- inhibition at 7 g/ha [7]: 60%
- inhibition at 7 g/ha (wheat (Triticum spp.)): 0%

Structure (SMILES): COC(=O)OC(C)Oc1c(C(=O)c2ccc(S(C)(=O)=O)c(C(=O)OC)c2C)cnn1C (stereo not shown) [Compound No. 1-2, Methyl 3-(5-(1-(methoxycarbonyloxy)ethoxy)-1-methyl-1H-pyrazole-4-carbonyl)-2-methyl-6-(methylsulfonyl)benzoate]
- inhibition at 7 g/ha [1]: 100%
- inhibition at 7 g/ha (corn (Zea mays L.)): 0%
- inhibition at 7 g/ha [2]: 90%
- inhibition at 7 g/ha [3]: 100%
- inhibition at 7 g/ha [5]: 95%
- inhibition at 7 g/ha (rice (Oryza sativa L.)): 70%
- inhibition at 7 g/ha [6]: 95%
- inhibition at 7 g/ha [7]: 80%
- inhibition at 7 g/ha (wheat (Triticum spp.)): 0%

Structure (SMILES): CCn1nc(C)c(C(=O)c2ccc(S(C)(=O)=O)c(OCCOC)c2C)c1O [Compound No. 6-1, (1-Ethyl-5-hydroxy-3-methyl-1H-pyrazol-4-yl)(3-(2-methoxyethoxy)-2-methyl-4-(methylsulfonyl)phenyl)ketone]
- inhibition at 7 g/ha [1]: 10%
- inhibition at 7 g/ha (corn (Zea mays L.)): 0%
- inhibition at 7 g/ha [2]: 50%
- inhibition at 7 g/ha [3]: 60%
- inhibition at 7 g/ha [4]: 0%
- inhibition at 7 g/ha [5]: 60%
- inhibition at 7 g/ha (rice (Oryza sativa L.)): 20%
- inhibition at 7 g/ha [7]: 50%
- inhibition at 7 g/ha (wheat (Triticum spp.)): 0%

Structure (SMILES): CCCn1ncc(C(=O)c2ccc(S(C)(=O)=O)c(OCCOC)c2C)c1O [Compound No. 7-1, (5-Hydroxy-1-n-propyl-1H-pyrazol-4-yl)(3-(2-methoxyethoxy)-2-methyl-4-(methylsulfonyl)phenyl)ketone]
- inhibition at 7 g/ha [1]: 60%
- inhibition at 7 g/ha (corn (Zea mays L.)): 0%
- inhibition at 7 g/ha [2]: 70%
- inhibition at 7 g/ha [3]: 70%
- inhibition at 7 g/ha [4]: 20%
- inhibition at 7 g/ha [5]: 70%
- inhibition at 7 g/ha (rice (Oryza sativa L.)): 10%
- inhibition at 7 g/ha [6]: 60%
- inhibition at 7 g/ha [7]: 75%
- inhibition at 7 g/ha (wheat (Triticum spp.)): 0%

Structure (SMILES): COCCOc1c(S(C)(=O)=O)ccc(C(=O)c2cnn(C(C)C)c2OC(C)OC(=O)OC)c1C (stereo not shown) [Compound No. 4-1, 1-(1-Isopropyl-4-(3-(2-methoxyethoxy)-2-methyl-4-(methylsulfonyl)benzoyl)-1H-pyrazol-5-yloxy)ethyl methyl carbonate]
- inhibition at 7 g/ha [1]: 90%
- inhibition at 7 g/ha (corn (Zea mays L.)): 0%
- inhibition at 7 g/ha [2]: 90%
- inhibition at 7 g/ha [3]: 95%
- inhibition at 7 g/ha [4]: 60%
- inhibition at 7 g/ha [5]: 85%
- inhibition at 7 g/ha (rice (Oryza sativa L.)): 80%
- inhibition at 7 g/ha [6]: 95%
- inhibition at 7 g/ha [7]: 100%
- inhibition at 7 g/ha (wheat (Triticum spp.)): 0%

Structure (SMILES): Cc1c(C(=O)c2cnn(C)c2O)ccc(S(C)(=O)=O)c1OCCC(C)C [Compound No. 5-1, (5-Hydroxy-1-methyl-1H-pyrazol-4-yl)(3-(2-isopropylethoxy)-2-methyl-4-(methylsulfonyl)phenyl)ketone]
- inhibition at 7 g/ha [1]: 30%
- inhibition at 7 g/ha (corn (Zea mays L.)): 0%
- inhibition at 7 g/ha [2]: 50%
- inhibition at 7 g/ha [3]: 50%
- inhibition at 7 g/ha [4]: 40%
- inhibition at 7 g/ha [5]: 60%
- inhibition at 7 g/ha (rice (Oryza sativa L.)): 0%
- inhibition at 7 g/ha [7]: 10%
- inhibition at 7 g/ha (wheat (Triticum spp.)): 0%

Structure (SMILES): CCOC(=O)OC(C)Oc1c(C(=O)c2ccc(S(C)(=O)=O)c(OCCOC(C)C)c2C)cnn1C (stereo not shown) [Compound No. 1-5, Ethyl 1-(4-(3-(2-isopropoxyethoxy)-2-methyl-4-(methylsulfonyl)benzoyl)-1-methyl-1H-pyrazol-5-yloxy)ethyl carbonate]
- inhibition at 7 g/ha [1]: 95%
- inhibition at 7 g/ha (corn (Zea mays L.)): 10%
- inhibition at 7 g/ha [2]: 90%
- inhibition at 7 g/ha [3]: 80%
- inhibition at 7 g/ha [4]: 0%
- inhibition at 7 g/ha [5]: 80%
- inhibition at 7 g/ha (rice (Oryza sativa L.)): 20%
- inhibition at 7 g/ha [7]: 80%
- inhibition at 7 g/ha (wheat (Triticum spp.)): 0%
